The record followed here is ChEMBL document CHEMBL1132331, “Synthesis and biological activity of the superestrogen (E)-17-oximino-3-O-sulfamoyl-1,3,5(10)-estratriene: x-ray crystal structure of (E)-17-oximino-3-hydroxy-1,3,5(10)-estratriene” (J Med Chem, 1999).

Experiment [1] concerns the target T1, Steryl-sulfatase (Rattus norvegicus) (UniProt P15589).
T1 sequence (whole entry): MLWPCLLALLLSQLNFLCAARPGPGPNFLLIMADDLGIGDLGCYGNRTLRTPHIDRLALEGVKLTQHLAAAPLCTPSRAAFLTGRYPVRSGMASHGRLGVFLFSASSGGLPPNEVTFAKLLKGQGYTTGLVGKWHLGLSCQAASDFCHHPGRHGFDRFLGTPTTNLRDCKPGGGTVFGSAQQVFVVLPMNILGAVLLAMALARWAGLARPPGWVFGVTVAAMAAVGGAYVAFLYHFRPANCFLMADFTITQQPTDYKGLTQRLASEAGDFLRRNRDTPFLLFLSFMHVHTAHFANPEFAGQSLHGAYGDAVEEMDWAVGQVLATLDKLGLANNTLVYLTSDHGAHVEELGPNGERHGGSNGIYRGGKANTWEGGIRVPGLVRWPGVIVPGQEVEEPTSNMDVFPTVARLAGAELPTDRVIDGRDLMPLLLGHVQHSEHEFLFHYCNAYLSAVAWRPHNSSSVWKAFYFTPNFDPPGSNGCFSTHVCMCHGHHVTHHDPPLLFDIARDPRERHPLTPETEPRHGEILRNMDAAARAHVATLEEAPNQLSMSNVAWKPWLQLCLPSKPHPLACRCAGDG
Description: In vivo inhibition of estrone sulfatase in rat liver after oral administration. The class given is organism-based. Conditions: concentration not given here.

For experiment [2], the species on record is Rattus norvegicus. Description: Effect on uterine weight gain in ovariectomized rat, expressed as uterine weight/total body weight X100 (0.036+/-0.001). It counts as functional.
The target of experiment [3] is T2, Steryl-sulfatase (Homo sapiens, UniProt P08842).
T2 sequence (P08842 whole entry): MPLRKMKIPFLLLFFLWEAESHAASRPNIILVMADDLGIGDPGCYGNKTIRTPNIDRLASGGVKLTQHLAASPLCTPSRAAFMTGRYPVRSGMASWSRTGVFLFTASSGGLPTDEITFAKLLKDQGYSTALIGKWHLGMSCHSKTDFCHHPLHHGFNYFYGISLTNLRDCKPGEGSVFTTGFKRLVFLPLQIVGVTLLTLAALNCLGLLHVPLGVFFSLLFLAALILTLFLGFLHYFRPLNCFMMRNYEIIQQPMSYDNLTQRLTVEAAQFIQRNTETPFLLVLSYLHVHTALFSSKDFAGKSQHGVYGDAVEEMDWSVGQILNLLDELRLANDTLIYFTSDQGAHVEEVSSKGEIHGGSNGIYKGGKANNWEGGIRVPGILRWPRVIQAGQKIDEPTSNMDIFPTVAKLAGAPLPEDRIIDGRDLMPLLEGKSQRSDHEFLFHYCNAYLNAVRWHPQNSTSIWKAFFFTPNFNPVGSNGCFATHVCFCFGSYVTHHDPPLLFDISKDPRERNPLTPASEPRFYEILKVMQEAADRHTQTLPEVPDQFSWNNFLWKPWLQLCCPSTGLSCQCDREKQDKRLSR
The experiment in a line: In vitro inhibition of estrone sulfatase in placental microsomes. Also on record: species or system Placenta.

The target in experiment [4] is T3, Steryl-sulfatase (Homo sapiens) (UniProt P08842).
T3 sequence (whole entry): T2 sequence (P08842 whole entry)
Description: Inhibition of estrone sulfatase in MCF-7 breast cancer cells at 0.1 uM. The class given is cell-based. Conditions: MCF7.

`C[C@]12CC[C@@H]3c4ccc(OS(N)(=O)=O)cc4CC[C@H]3[C@@H]1CCC2=O` [EMATE]: in experiment [1], the inhibition was found to be 99%. Also, the Average uterine weight in experiment [2] was determined as 0.11. Besides, the IC50 in experiment [3] was 0.093 µM.

Consider `C[C@]12CC[C@@H]3c4ccc(OS(N)(=O)=O)cc4CC[C@H]3[C@@H]1CC/C2=N\O`, for which the inhibition in experiment [4] and in experiment [1] was 99% in each case. In experiment [2], this molecule returned an Average uterine weight of 0.15. Moreover, half-maximal inhibition in experiment [3] (IC50) was put at 0.08 µM.

One may read the inhibition as the percentage by which the read-out fell short of the control. Low values mean a weak effect, high ones a strong effect. As a reminder, the IC50 is the point on the concentration scale where inhibition reaches its midpoint.
